Laboratory results as given in patent publication US9044478B2, “Use of 1,4-bis (3-aminoalkyl) piperazine derivatives in the treatment of neurodegenerative diseases” (INSTITUT NATIONAL DE LA SANTE ET DE LA RECHERCHE MEDICALE, priority 2004, dated 2015).

Legend:
Aβ1-42 = test: Aβ 1-42 of the cell supernatant quantified by ELISA (Innotest β-Amyloid1-42); format: cell-based, human
Method: (§1) The human neuroblastoma cell line SH-SYSY were cultured in Dulbecco's modified Eagle medium supplemented with 10% fetal calf serum, 2 mM L-glutamine, 1 mM non-essential amino-acids, penicillin/streptomycin (Invitrogen SARL, Cergy Pontoise, France) and 200 μg/ml G418 (to select for APP expression) in a 5% CO2 humidified incubator at 37° C. APP751 cDNA with the Swedish mutation (APP^Sw) was subcloned into stably eukaryotic expression vector pcDNA3 (Invitrogen), allowing for a G418 (Invitrogen) selection of stable clones. This APP cDNA was stably transfected into SH-SY5Y cells using the ethyleneimine polymer ExGen 500 (Euromedex) according to the manufacturer's instructions.
(§2) Cells were plated into 6-well plates 24 h before drug exposure. […] After treatment, the medium was collected for the dosage of Aβ1-42. Cells were washed with phosphate-buffered saline and scraped with a policeman rubber in 70 μl of Laemmli sample buffer with protease inhibitors (Complete Mini Roche Molecular Biochemicals, Meylan, France), sonicated and heat-treated for 5 min at 100° C. Protein concentration was established using the PlusOne™ 2-D Quant Kit (Amersham Biosciences, Orsay, France) and samples were kept at −80° C. until used.
The collected medium was spun at 200 g to eliminate the cell debris and Aβ1-42 concentration was determined using the Innotest® β-Amyloid1-42 (Innogenetics, Ghent, Belgium) according to the manufacturer's instructions.
(§3) SKNSH SY5Y transfected cells were grown in the presence of drugs at different concentrations, for example at 1 μM or 5 μM, then cells were harvested and analyzed for their APP-CTF content, using the western-blot approach, while Aβ 1-42 of the cell supernatant Was quantified by ELISA, as described in material and methods. For each compound, normal levels have the arbitrary value of 1. For example, if one APP-CTF is increased 10 times, the value is reported as 10. For Aβ peptide, if decreased of 60%, the value is reported as 0.4 (40% remaining).

APP-CTFs = APP-CTFs content of APPSw-transfected SH-SY5Y cells by western blot; format: cell-based, human; parameters: key to β (APP-CTF β stub level, normal level = 1) / α (APP-CTF α stub level, normal level = 1) / γ (APP-CTF γ stub level, normal level = 1) / CTFs (APP-CTFs level, normal level = 1): fold of normal level, normal = 1
Method: as §1, §2
The APPCter-C17 antibody is raised against the last 17 amino acids of the human APP sequence (Sergeant, N., David, J. P., Champain, D., Ghestem, A., Wattez, A., and Delacourte, A. (2002) J Neurochem 81, 663-672). This polyclonal antibody detects all APP-CTFs fragments. The tubulin signal was used as a loading control and to normalize the APP-CTFs content. Anti-mouse or anti-rabbit secondary antibodies coupled with horseradish peroxidase were purchased at SIGMA Immunochemicals (Saint Quentin Fallavier, France).
The same quantity of total proteins (20 μg/lane) was loaded on a 16.5% Tris-tricine polyacrylamide gel. Tris-tricine SDS-polyacrylamide gel electrophoresis (PAGE) was performed following the procedure of Schagger and Von Jagow (1987) (Schagger, H., and von Jagow, G. (1987) Anal Biochem 166, 368-379) with a protean II Xi Cell (Bio-Rad, Marnes la coquette, France). Proteins were transferred to nitrocellulose membrane at 2.5 mA/cm^2 per gel using the SemiDry Novablot Transfer system (Amersham Biosciences, Orsay, France), according to the manufacturer's instructions. Proteins were reversibly stained with Ponceau Red to check the quality of the transfer. Membranes were blocked in 25 mM Tris-HCl pH 8.0, 150 mM NaCl, 0.1% Tween-20 (v/v) and 5% (w/v) of skimmed milk for 30 min. Membranes were incubated overnight at 4° C. with appropriate dilutions of the primary antibodies, and incubated for 1 h at room temperature with secondary antibody.
Western blot films were digitized using an UMax scanner calibrated for optical densities (Amersham Biosciences). The Image-MASTER 1D ELITE Software (Amersham Biosciences) was used to quantify the signal, and data were collected using Excel Software (Microsoft, LesUlis, France).
as §3

[1] = test system: brain capillary endothelial cells co-cultured with glial cells; test: In vitro Blood-Brain Barrier model, drug transport; format: in vitro ADME; conditions: for Permeability coefficient: in vitro BBB model
From the text: (§4) The ability of some compounds to cross the Blood-Brain Barrier (BBB) has been evaluated, using an in vitro model (Cecchelli, R., et al., In vitro model for evaluating drug transport across the blood-brain barriers. Adv Drug Deliv Rev, 1999. 36(2-3): p. 165-178). The described model consists in brain capillary endothelial cells co-cultured with glial cells, thereby closely mimicking the in vivo conditions (Lundquist, S, and M. Renftel, The use of in vitro cell culture models for mechanistic studies and as permeability screens for the blood-brain barrier in the pharmaceutical industry-background and current status in the drug discovery process. Vascul Pharmacol 2002. 38(6): p. 355-64) and developed by CELLIAL Technologies SA.
(§5) The transport of drug was good for example 16 and moderate for example 23. Indeed, the permeability coefficients obtained for example 16 (2.26×10^−3 cm/min) and example 23 (1.81×10^−3 cm/min) indicate that these compounds cross the BBB and are good candidates as CNS drugs.

[2] = test system: endothelial cell monolayer; test: Toxicity on the endothelial cell monolayer of the BBB model; format: cell-based; conditions: concentration of 10 μM
From the text: as §4, §5

[3] = Solubility in the BBB screening; format: physicochemical
From the text: as §5

[4] = greater concentration (5 μM) at 24 hours
[5] = low concentration (1 μM) at 6 hours
[6] = 24 h, 1 μM as printed (fourth column)

With “1,4-bis{3-[N-n-heptyl)amino]propyl}piperazine [Example 10]” the “Decrease of Aβ peptide levels compared to the control (FIG. 1)” value (“Decrease of Aβ peptide levels” below) (Aβ1-42; [4]) was “efficiency is confirmed” and the “Decrease of Aβ peptide levels” value (Aβ1-42; [5]) was “efficient to decrease Aβ peptide levels”.
In the case of `Clc1ccc(CNCCCN2CCN(CCCNCc3ccc(Cl)cc3)CC2)cc1` [Example 4], the “Efficiency for α and γ-APP-CTFs stubs” value (APP-CTFs) is reported as “particularly high efficiency”, the “CTFs (APP-CTFs level, normal level = 1)” value (APP-CTFs; 6 h, 1 μM) is reported as 6 and the “α (APP-CTF α stub level, normal level = 1)” value (APP-CTFs; 6 h, 1 μM) is reported as 14. The “β (APP-CTF β stub level, normal level = 1)” value (APP-CTFs; 6 h, 1 μM) was 0.8, the “γ (APP-CTF γ stub level, normal level = 1)” value (APP-CTFs; 6 h, 1 μM) was 9.6 and the “CTFs (APP-CTFs level, normal level = 1)” value (APP-CTFs; 6 h, 5 μM) was 5. For the same compound, the “α (APP-CTF α stub level, normal level = 1)” value (APP-CTFs; 6 h, 5 μM) was 11, the “β (APP-CTF β stub level, normal level = 1)” value (APP-CTFs; 6 h, 5 μM) was 1.2 and the “γ (APP-CTF γ stub level, normal level = 1)” value (APP-CTFs; 6 h, 5 μM) was 5.7. The “CTFs (APP-CTFs level, normal level = 1)” value (APP-CTFs; 24 h, 1 μM (third column)) was 3.5, the “α (APP-CTF α stub level, normal level = 1)” value (APP-CTFs; 24 h, 1 μM (third column)) was 3.5 and the “β (APP-CTF β stub level, normal level = 1)” value (APP-CTFs; 24 h, 1 μM (third column)) was 0.8. The “γ (APP-CTF γ stub level, normal level = 1)” value (APP-CTFs; 24 h, 1 μM (third column)) was 5.1, the “CTFs (APP-CTFs level, normal level = 1)” value (APP-CTFs; [6]) was 65 and the “α (APP-CTF α stub level, normal level = 1)” value (APP-CTFs; [6]) was 7. For the same compound, the “β (APP-CTF β stub level, normal level = 1)” value (APP-CTFs; [6]) was 5, the “γ (APP-CTF γ stub level, normal level = 1)” value (APP-CTFs; [6]) was 14.4 and the “Efficiency for Aβ peptide (FIG. 1)” value (Aβ1-42) was “particularly high efficiency”. The “Aβ (Aβ peptide level, normal level = 1; fraction remaining)” value (Aβ1-42; 6 h, 1 μM) was 0.2, the “Aβ (Aβ peptide level, normal level = 1; fraction remaining)” value (Aβ1-42; 6 h, 5 μM) was 0 and the “Aβ (Aβ peptide level, normal level = 1; fraction remaining)” value (Aβ1-42; 24 h, 1 μM (third column)) was 1. For the same compound, the “Aβ (Aβ peptide level, normal level = 1; fraction remaining)” value (Aβ1-42; [6]) was 0.1, the “Decrease of Aβ peptide levels” value (Aβ1-42; [4]) was “efficiency is confirmed” and the “Decrease of Aβ peptide levels” value (Aβ1-42; [5]) was “efficient to decrease Aβ peptide levels”.
For “N^4-(3-{4-[3(diisobutylamino)propyl]piperizano}propyl)-benzimidazol-2-amine [Example 16]”, the “Transport of drug across the in vitro BBB” value [1] was “good”, the “Diffusion across the filter membrane coated with collagen and without cells” value [1] was “able to diffuse across the filter membrane” and the Permeability coefficient [1] was 37.7 ×10⁻⁶ cm/s. The “Toxicity on the endothelial cell monolayer” value [2] was “not toxic” and the Solubility [3] was “soluble”.
For “N^4-[3-(4-{3-[diisobutylamino]propyl}piperizano)propyl]-4-benzyloxyamine [Example 23]”, the “Transport of drug across the in vitro BBB” value [1] was “moderate”, the “Diffusion across the filter membrane coated with collagen and without cells” value [1] was “able to diffuse across the filter membrane” and the Permeability coefficient [1] was 30.2 ×10⁻⁶ cm/s. For the same compound, the “Toxicity on the endothelial cell monolayer” value [2] was “not toxic” and the Solubility [3] was “soluble”.
